Measurements reported in US20250059174A1, “Pharmaceutical Compounds and Compositions as C-Kit Kinase Inhibitors” (Enanta Pharmaceuticals, Inc., priority 2023, published 2025).

Biological target: Recombinant human c-KIT kinase (Homo sapiens (Human), UniProt P10721)
Test: c-KIT kinase chemiluminescence assay (ADP-Glo)
Assay type: biochemical
Conditions: ATP 50 μM
Experimental: The c-KIT Kinase Enzyme System (V4498) and ADP-Glo™ Kinase Assay kit (V6930) were purchased from Promega (Madison, WI). DMSO (D2650) was purchased from Sigma-Aldrich (Burlington, MA).
Kinase Reaction: The kinase assay was based on the recommended protocol by c-KIT Kinase Enzyme System from Promega. Recombinant human c-KIT kinase in 3 μL of assay buffer (40 mM Tris pH 7.5, 20 mM MgCl2, 0.1 mg/mL BSA and 50 μM DTT) was added to the test or high control wells and 3 μL of assay buffer was added to the low control wells. The microplate was centrifuged at 800 rotations per minute (rpm) for 60 s and incubated at room temperature (RT) for 30 min. Next, 2 μL of buffered ATP and polyEY substrate solution was added to all wells. The microplate was centrifuged at 800 rpm for 60 s and incubated at RT for 2 h.
ADP detection with ADP-Glo™ Kinase Assay: After the kinase reaction incubation, 5 μL of ADP-Glo™ reagent was added to all wells. The microplate was centrifuged at 800 rpm for 60 s and incubated at RT for 40 min. Ten microliter (10 μL) of Kinase Detection Reagent (Luciferin-Luciferase system) was then added to all wells. The microplate was centrifuged at 800 rpm for 60 s and incubated at RT for 60 min. Kinase activity was measured as increase in luminescence at RT in an Envision plate reader equipped with 560 nm filters and operating in endpoint mode. Data Analysis: Endpoint chemiluminescence from high and low control wells were used to calculate normalized c-KIT activity at various concentrations of test compounds. The normalized activities were fitted to inhibitor-versus-normalized response fit in GraphPad Prism 7 to determine half-maximal inhibitory concentration (IC50) and hill coefficient values (H).
Where I is the inhibitor concentration and H is the Hill coefficient.

Chain of Recombinant human c-KIT kinase (P10721 26-976): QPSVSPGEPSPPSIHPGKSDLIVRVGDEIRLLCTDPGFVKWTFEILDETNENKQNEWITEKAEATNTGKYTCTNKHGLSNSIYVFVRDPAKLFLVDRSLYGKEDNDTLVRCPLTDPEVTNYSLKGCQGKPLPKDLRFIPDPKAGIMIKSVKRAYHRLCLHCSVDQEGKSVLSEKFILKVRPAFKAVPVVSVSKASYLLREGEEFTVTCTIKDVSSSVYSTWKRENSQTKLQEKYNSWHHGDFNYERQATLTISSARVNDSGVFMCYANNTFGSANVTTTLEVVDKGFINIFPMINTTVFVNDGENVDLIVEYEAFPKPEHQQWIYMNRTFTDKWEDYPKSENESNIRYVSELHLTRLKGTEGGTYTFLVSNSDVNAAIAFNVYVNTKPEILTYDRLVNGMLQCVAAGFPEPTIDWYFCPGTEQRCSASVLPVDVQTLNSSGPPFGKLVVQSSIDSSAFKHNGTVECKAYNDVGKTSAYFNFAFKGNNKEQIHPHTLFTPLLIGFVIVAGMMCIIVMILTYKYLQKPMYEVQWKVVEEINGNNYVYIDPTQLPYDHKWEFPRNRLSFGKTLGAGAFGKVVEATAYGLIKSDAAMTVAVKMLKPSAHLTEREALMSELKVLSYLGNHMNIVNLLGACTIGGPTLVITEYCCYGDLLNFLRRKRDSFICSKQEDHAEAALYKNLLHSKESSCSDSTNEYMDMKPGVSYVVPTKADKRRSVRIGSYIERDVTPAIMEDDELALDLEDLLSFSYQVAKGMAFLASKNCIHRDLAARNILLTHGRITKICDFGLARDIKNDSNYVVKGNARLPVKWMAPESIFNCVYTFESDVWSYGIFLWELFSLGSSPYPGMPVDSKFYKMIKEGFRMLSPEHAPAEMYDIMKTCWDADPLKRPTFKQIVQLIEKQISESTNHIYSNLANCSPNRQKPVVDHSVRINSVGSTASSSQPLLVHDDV

Row | IC50 [nM] | SMILES
1 | > 1000 | Cc1ccc(-c2noc([C@H]3C[C@@H]3F)n2)cc1NC(=O)c1cnc2ncsc2c1 [Example 50]
2 | > 1000 | O=C(Nc1cn(-c2ccc(C3CC3)cc2)nc1C(F)F)c1cnn2ccc(N3CC4(COC4)C3)cc12 [compound 373]
3 | > 1000 | Cc1ccc(-c2noc([C@H]3C[C@@H]3F)n2)cc1NC(=O)c1cnc2ccccc2n1 [Example 65]
4 | < 100 | Cc1ccc(-c2noc([C@H]3C[C@@H]3F)n2)cc1NC(=O)c1cnn2cc(-c3cnn(CCO)c3)ccc12 [Example 139]
5 | > 1000 | Cc1ccc(-c2noc([C@H]3C[C@@H]3F)n2)cc1NC(=O)c1cnc2ccnn2c1 [Example 47]
6 | > 1000 | Cc1ccc(-c2noc([C@H]3C[C@@H]3F)n2)cc1NC(=O)c1ccnc2ccnn12 [Example 26]
7 | > 1000 | COc1ccccc1-c1ncc(C(=O)Nc2cc(-c3noc([C@H]4C[C@@H]4F)n3)ccc2C)[nH]1 [Example 78]
8 | 100 to 1000 | Cc1ccc(-c2noc([C@H]3C[C@@H]3F)n2)cc1NC(=O)c1cnc2cnccn12 [Example 1]
9 | > 1000 | Cc1ccc(-c2noc([C@H]3C[C@@H]3F)n2)cc1NC(=O)n1c(=O)[nH]c2ccccc21 [Example 86]
10 | 100 to 1000 | Cc1ccc(-c2noc([C@H]3C[C@@H]3F)n2)cc1NC(=O)c1cnc2n1CCCC2 [Example 10]
11 | < 100 | Cc1ccc(-c2noc([C@H]3C[C@@H]3F)n2)cc1NC(=O)c1cnn2cc(-c3cnn(CC(C)(C)O)c3)ccc12 [Example 143]
12 | > 1000 | Cc1ccc(-c2noc([C@H]3C[C@@H]3F)n2)cc1NC(=O)c1cnc2cccn2c1 [Example 45]
13 | > 1000 | Cc1ccc(-c2noc([C@H]3C[C@@H]3F)n2)cc1NC(=O)c1cn2ccsc2n1 [Example 68]
14 | > 1000 | Cc1ccc(-c2noc([C@H]3C[C@@H]3F)n2)cc1NC(=O)c1csc2cncnc12 [Example 19]
15 | 100 to 1000 | COc1cccc(-n2cc(C(=O)Nc3cc(-c4noc([C@H]5C[C@@H]5F)n4)ccc3C)cn2)c1 [Example 80]
16 | < 100 | Cc1ccc(-c2noc([C@H]3C[C@@H]3F)n2)cc1NC(=O)c1cnn2cc(-c3cnn(C4COC4)c3)ccc12 [Example 137]
17 | 100 to 1000 | Cc1ccc(-c2noc([C@H]3C[C@@H]3F)n2)cc1NC(=O)c1cnc2n1CCOc1ccccc1-2 [Example 101]
18 | > 1000 | Cc1ccc(-c2noc([C@H]3C[C@@H]3F)n2)cc1NC(=O)c1cncn1-c1ccccc1 [Example 17]
19 | > 1000 | Cc1ccc(-c2noc([C@H]3C[C@@H]3F)n2)cc1NC(=O)c1ccnc2cnccc12 [Example 8]
20 | > 1000 | Cc1ccc(-c2noc([C@H]3C[C@@H]3F)n2)cc1NC(=O)c1cnn(-c2cccc(NC(=O)OC(C)(C)C)c2)c1 [Example 87]
21 | > 1000 | Cc1ccc(-c2noc([C@H]3C[C@@H]3F)n2)cc1NC(=O)c1cnn(-c2ccccc2)n1 [Example 83]

Row | IC50 [nM] | SMILES
22 | > 1000 | Cc1ccc(-c2noc([C@H]3C[C@@H]3F)n2)cc1NC(=O)c1cnn2ncccc12 [Example 18]
23 | > 1000 | Cc1ccc(-c2noc([C@H]3C[C@@H]3F)n2)cc1NC(=O)c1cnn2c1CCCC2 [Example 9]
24 | > 1000 | Cc1ccc(-c2noc([C@H]3C[C@@H]3F)n2)cc1NC(=O)c1cnc2nccn2c1 [Example 46]
25 | < 100 | Cc1ccc(-c2noc([C@H]3C[C@@H]3F)n2)cc1NC(=O)c1cnn2cc(-c3cnn(C(C)(C)CO)c3)ccc12 [Example 141]
26 | 100 to 1000 | Cc1ccc(-c2noc([C@H]3C[C@@H]3F)n2)cc1NC(=O)c1cnn2cc(Cl)c(N3CC4(COC4)C3)cc12 [Example 229]
27 | > 1000 | Cc1ccc(-c2noc([C@H]3C[C@@H]3F)n2)cc1NC(=O)c1cnc2ccncc2c1 [Example 64]
28 | 100 to 1000 | Cc1ccc(-c2noc([C@H]3C[C@@H]3F)n2)cc1NC(=O)c1cn[nH]c1-c1ccccc1 [Example 79]
29 | > 1000 | Cc1ccc(-c2noc([C@H]3C[C@@H]3F)n2)cc1NC(=O)c1cnc2[nH]cnc2c1 [Example 66]
30 | > 1000 | Cc1ccc(-c2noc([C@H]3C[C@@H]3F)n2)cc1NC(=O)c1cnn2ccc(C(=O)N3CCCCC3)cc12 [Example 89]
31 | > 1000 | Cc1ccc(-c2noc([C@H]3C[C@@H]3F)n2)cc1NC(=O)c1cnc2[nH]ccc2c1 [Example 33]
32 | < 100 | Cc1ccc(-c2noc([C@H]3C[C@@H]3F)n2)cc1NC(=O)c1cnc(-c2ccc3c(cnn3CC(C)(C)O)c2)o1 [Example 308-65]
33 | > 1000 | Cc1ccc(-c2noc([C@H]3C[C@@H]3F)n2)cc1NC(=O)c1nnn2ccccc12 [Example 21]
34 | > 1000 | Cc1ccc(-c2noc([C@H]3C[C@@H]3F)n2)cc1NC(=O)c1cnn(-c2cccc(Br)c2)c1 [Example 82]
35 | > 1000 | Cc1ccc(-c2noc([C@H]3C[C@@H]3F)n2)cc1NC(=O)c1cnc2[nH]ncc2c1 [Example 31]
36 | 100 to 1000 | Cc1ccc(-c2noc([C@H]3C[C@@H]3F)n2)cc1NC(=O)c1cnn2c1ccc1ccccc12 [Example 88]
37 | < 100 | Cc1ccc(-c2noc([C@H]3C[C@@H]3F)n2)cc1NC(=O)c1cnn2cc(-c3cn(C(F)F)nn3)ccc12 [Example 107]
38 | < 100 | Cc1ccc(-c2noc([C@H]3C[C@@H]3F)n2)cc1NC(=O)c1cnn2cc(-c3ccn(C(F)F)n3)ccc12 [Example 134]
39 | > 1000 | Cc1ccc(-c2noc([C@H]3C[C@@H]3F)n2)cc1NC(=O)c1ccnc2ncccc12 [Example 12]
40 | > 1000 | Cc1ccc(-c2noc([C@H]3C[C@@H]3F)n2)cc1NC(=O)c1cnc2sccc2c1 [Example 29]
41 | > 1000 | Cc1ccc(-c2noc([C@H]3C[C@@H]3F)n2)cc1NC(=O)c1cnn(-c2cccc(Cl)c2)c1 [Example 81]
42 | 100 to 1000 | Cc1ccc(-c2noc([C@H]3C[C@@H]3F)n2)cc1NC(=O)c1cnc(-c2ccccc2F)s1 [Example 24]

Row | IC50 [nM] | SMILES
43 | > 1000 | Cc1ccc(-c2noc([C@H]3C[C@@H]3F)n2)cc1NC(=O)c1cnc2c(cnn2C(=O)C(C)C)c1 [Example 32]
44 | > 1000 | Cc1ccc(-c2noc([C@H]3C[C@@H]3F)n2)cc1NC(=O)c1cn(-c2ccccc2)nn1 [Example 22]
45 | > 1000 | Cc1ccc(-c2noc([C@H]3C[C@@H]3F)n2)cc1NC(=O)c1cnc2cn[nH]c2c1 [Example 48]
46 | 100 to 1000 | Cc1ncc(-c2nnn(C3CN(C(=O)C4CC4)C3)n2)cc1NC(=O)c1cnn2ccc(N3CC4(C3)CC(O)(C(F)F)C4)cc12 [Example 312-10]
47 | 100 to 1000 | Cc1ccc(-c2noc([C@H]3C[C@@H]3F)n2)cc1NC(=O)c1cnn2ccc(C(=O)NC3CCCCC3)cc12 [Example 91]
48 | > 1000 | Cc1ccc(-c2noc([C@H]3C[C@@H]3F)n2)cc1NC(=O)c1cnn(C)c1C [Example 11]
49 | < 100 | Cc1ccc(-c2noc([C@H]3C[C@@H]3F)n2)cc1NC(=O)c1cnc(-c2ccc3nn(CC(C)(C)O)cc3c2)o1 [Example 308-66]
50 | 100 to 1000 | Cc1ccc(-c2noc([C@H]3C[C@@H]3F)n2)cc1NC(=O)c1cnn(-c2ccccn2)c1 [Example 75]
51 | 100 to 1000 | Cc1ccc(-c2noc([C@H]3C[C@@H]3F)n2)cc1NC(=O)c1cnc(-c2ccccc2)s1 [Example 84]
52 | > 1000 | Cc1ccc(-c2noc([C@H]3C[C@@H]3F)n2)cc1NC(=O)c1cnn(-c2ccccc2Cl)c1 [Example 76]
53 | > 1000 | Cc1ccc(-c2noc([C@H]3C[C@@H]3F)n2)cc1NC(=O)c1cnc(-c2ccccc2)[nH]1 [Example 77]
54 | > 1000 | Cc1ccc(-c2noc([C@H]3C[C@@H]3F)n2)cc1NC(=O)c1cnc2ncccn12 [Example 25]
55 | > 1000 | Cc1ccc(-c2noc([C@H]3C[C@@H]3F)n2)cc1NC(=O)c1cn(-c2ccccc2)nc1C [Example 53]
56 | > 1000 | Cc1ccc(-c2noc([C@H]3C[C@@H]3F)n2)cc1NC(=O)c1nnc2ccccn12 [Example 20]
57 | < 100 | Cc1ccc(-c2noc([C@H]3C[C@@H](OC(F)F)C3)n2)cc1NC(=O)c1cnn2ccc(N3CC4(COC4)C3)cc12 [Example 242]
58 | > 1000 | Cc1ccc(-c2noc([C@H]3C[C@@H]3F)n2)cc1NC(=O)c1cnc2cnn(C(=O)C(C)C)c2c1 [Example 49]
59 | < 100 | Cc1ccc(-c2noc([C@H]3C[C@@H]3F)n2)cc1NC(=O)c1cnn2cc(-c3cnn(C(F)F)c3)ccc12 [Example 133]
60 | > 1000 | Cc1ccc(-c2noc([C@H]3C[C@@H]3F)n2)cc1NC(=O)c1cnc2cnccc2c1 [Example 63]
61 | > 1000 | Cc1ccc(-c2noc([C@H]3C[C@@H]3F)n2)cc1NC(=O)c1cnn(-c2ccc(Cl)cc2)c1 [Example 51]
62 | > 1000 | Cc1ccc(-c2noc([C@H]3C[C@@H]3F)n2)cc1NC(=O)c1cnc2c(c1)ncn2C(=O)C(C)C [Example 67]
63 | > 1000 | Cc1ccc(-c2noc([C@H]3C[C@@H]3F)n2)cc1NC(=O)c1cnc2ncccc2c1 [Example 28]

Row | SMILES | IC50 [nM]
64 | C#Cc1ccc2c(C(=O)Nc3cc(-c4noc([C@H]5C[C@@H]5F)n4)ccc3C)cnn2c1 [Example 106] | < 100
